Experimental data: the NIST ThermoML archive (doi:10.1021/je7001013)

Legend:
[1] = refractive index (Na D-line) (dimensionless); xn = mol fraction of the nth substance listed; conditions: 101 kPa, Liquid
[2] = xn = mol fraction of the nth substance listed; conditions: Maximal bubble pressure

C[S+](C)[O-] [dimethyl sulfoxide] + O
Conditions | refractive index, [1] | surface tension liquid-gas, [2] [mN/m]
298.15 K, x1 = 0.0121 | 1.34 | 71
298.15 K, x1 = 0.0202 | 1.344 | 69.7
298.15 K, x1 = 0.1044 | – | 61.2
298.15 K, x1 = 0.1467 | 1.396 | –
298.15 K, x1 = 0.1979 | – | 56.7
298.15 K, x1 = 0.2455 | 1.4215 | –
298.15 K, x1 = 0.2507 | – | 55.4
298.15 K, x1 = 0.2959 | 1.4305 | –
298.15 K, x1 = 0.2999 | – | 53.3
298.15 K, x1 = 0.3187 | – | 53.1
298.15 K, x1 = 0.3213 | 1.4345 | –
298.15 K, x1 = 0.3536 | – | 52.6
298.15 K, x1 = 0.3713 | 1.4415 | –
298.15 K, x1 = 0.3802 | – | 52
298.15 K, x1 = 0.3967 | 1.4445 | –
298.15 K, x1 = 0.4191 | – | 51
298.15 K, x1 = 0.4301 | 1.4475 | –
298.15 K, x1 = 0.4523 | – | 50.3
298.15 K, x1 = 0.501 | – | 48.3
298.15 K, x1 = 0.59 | – | 46
298.15 K, x1 = 0.5964 | 1.461 | –
298.15 K, x1 = 0.7027 | – | 44
298.15 K, x1 = 0.7685 | 1.47 | –
298.15 K, x1 = 0.8088 | – | 42.6
298.15 K, x1 = 0.8945 | – | 42
303.15 K, x1 = 0.0121 | 1.339 | 70.1
303.15 K, x1 = 0.0202 | 1.3435 | 68.7
303.15 K, x1 = 0.1044 | – | 60.6
303.15 K, x1 = 0.1467 | 1.4005 | –
303.15 K, x1 = 0.1979 | – | 55.8
303.15 K, x1 = 0.2455 | 1.42 | –
303.15 K, x1 = 0.2507 | – | 54.5
303.15 K, x1 = 0.2959 | 1.4295 | –
303.15 K, x1 = 0.2999 | – | 52.4
303.15 K, x1 = 0.3187 | – | 52.3
303.15 K, x1 = 0.3213 | 1.4335 | –
303.15 K, x1 = 0.3536 | – | 51.7
303.15 K, x1 = 0.3713 | 1.4405 | –
303.15 K, x1 = 0.3802 | – | 51.2
303.15 K, x1 = 0.3967 | 1.443 | –
303.15 K, x1 = 0.4191 | – | 50
303.15 K, x1 = 0.4301 | 1.4455 | –
303.15 K, x1 = 0.4523 | – | 49.9
303.15 K, x1 = 0.501 | – | 47.4
303.15 K, x1 = 0.59 | – | 45.2
303.15 K, x1 = 0.5964 | 1.459 | –
303.15 K, x1 = 0.7027 | – | 43.4
303.15 K, x1 = 0.7685 | 1.468 | –
303.15 K, x1 = 0.8088 | – | 42.1
303.15 K, x1 = 0.8945 | – | 41.4
308.15 K, x1 = 0.0121 | 1.3395 | 69.2
308.15 K, x1 = 0.0202 | 1.343 | 67.9
308.15 K, x1 = 0.1044 | – | 59.8
308.15 K, x1 = 0.1467 | 1.4 | –
308.15 K, x1 = 0.1979 | – | 54.8
308.15 K, x1 = 0.2455 | 1.419 | –
308.15 K, x1 = 0.2507 | – | 53.2
308.15 K, x1 = 0.2959 | 1.428 | –
308.15 K, x1 = 0.2999 | – | 51.5
308.15 K, x1 = 0.3187 | – | 51.4
308.15 K, x1 = 0.3213 | 1.432 | –
308.15 K, x1 = 0.3536 | – | 50.6
308.15 K, x1 = 0.3713 | 1.4395 | –
308.15 K, x1 = 0.3802 | – | 50.3
308.15 K, x1 = 0.3967 | 1.442 | –
308.15 K, x1 = 0.4191 | – | 49.2
308.15 K, x1 = 0.4301 | 1.4445 | –
308.15 K, x1 = 0.4523 | – | 49.1
308.15 K, x1 = 0.501 | – | 46.7
308.15 K, x1 = 0.59 | – | 44.6
308.15 K, x1 = 0.5964 | 1.458 | –
308.15 K, x1 = 0.7027 | – | 42.6
308.15 K, x1 = 0.7685 | 1.466 | –
308.15 K, x1 = 0.8088 | – | 41.5
308.15 K, x1 = 0.8945 | – | 40.9
313.15 K, x1 = 0.0121 | – | 67.6
313.15 K, x1 = 0.0202 | – | 66.9
313.15 K, x1 = 0.1044 | – | 58.7
313.15 K, x1 = 0.1979 | – | 53.9
313.15 K, x1 = 0.2507 | – | 52.3
313.15 K, x1 = 0.2999 | – | 50.6
313.15 K, x1 = 0.3187 | – | 50.4
313.15 K, x1 = 0.3536 | – | 50
313.15 K, x1 = 0.3802 | – | 49.5
313.15 K, x1 = 0.4191 | – | 48.4
313.15 K, x1 = 0.4523 | – | 48.2
313.15 K, x1 = 0.501 | – | 46
313.15 K, x1 = 0.59 | – | 43.8
313.15 K, x1 = 0.7027 | – | 42.1
313.15 K, x1 = 0.8088 | – | 40.9
313.15 K, x1 = 0.8945 | – | 40.3
318.15 K, x1 = 0.0121 | – | 66.4
318.15 K, x1 = 0.0202 | – | 65.8
318.15 K, x1 = 0.1044 | – | 57.9
318.15 K, x1 = 0.1979 | – | 53
318.15 K, x1 = 0.2507 | – | 51.2
318.15 K, x1 = 0.3218 | – | 50.7
318.15 K, x1 = 0.3506 | – | 49.7
318.15 K, x1 = 0.3549 | – | 49.4
318.15 K, x1 = 0.3802 | – | 48.6
318.15 K, x1 = 0.4191 | – | 47.5
318.15 K, x1 = 0.4523 | – | 47.3
318.15 K, x1 = 0.501 | – | 45.1
318.15 K, x1 = 0.59 | – | 43.1
318.15 K, x1 = 0.7027 | – | 41.4
318.15 K, x1 = 0.8088 | – | 40.4
318.15 K, x1 = 0.8945 | – | 39.8
323.15 K, x1 = 0.0121 | – | 65.3
323.15 K, x1 = 0.0202 | – | 64.8
323.15 K, x1 = 0.1044 | – | 57
323.15 K, x1 = 0.1979 | – | 52.2
323.15 K, x1 = 0.2507 | – | 50.3
323.15 K, x1 = 0.3218 | – | 49.9
323.15 K, x1 = 0.3506 | – | 48.7
323.15 K, x1 = 0.3549 | – | 48.4
323.15 K, x1 = 0.3802 | – | 47.7
323.15 K, x1 = 0.4191 | – | 46.7
323.15 K, x1 = 0.4523 | – | 46.3
323.15 K, x1 = 0.501 | – | 44.4
323.15 K, x1 = 0.59 | – | 42.3
323.15 K, x1 = 0.7027 | – | 40.8
323.15 K, x1 = 0.8088 | – | 39.8
323.15 K, x1 = 0.8945 | – | 39.2
328.15 K, x1 = 0.0121 | – | 65.1
328.15 K, x1 = 0.0202 | – | 63.8
328.15 K, x1 = 0.1044 | – | 55.1
328.15 K, x1 = 0.1979 | – | 51.1
328.15 K, x1 = 0.2507 | – | 49.4
328.15 K, x1 = 0.3218 | – | 49
328.15 K, x1 = 0.3506 | – | 47.7
328.15 K, x1 = 0.3549 | – | 47.4
328.15 K, x1 = 0.3802 | – | 46.8
328.15 K, x1 = 0.4191 | – | 45.9
328.15 K, x1 = 0.4523 | – | 45.3
328.15 K, x1 = 0.501 | – | 43.5
328.15 K, x1 = 0.59 | – | 41.7
328.15 K, x1 = 0.7027 | – | 40.2
328.15 K, x1 = 0.8088 | – | 39.2
328.15 K, x1 = 0.8945 | – | 38.7
